Results reported in patent US12441768B2, “Compositions and methods for treating endometriosis” (EndoMet Biosciences, Inc., priority 2018, dated 2025).
pEC50, pKd: −log10 of the molar value. Where a SMILES comes first, the peptide text is derived from it.

Assays:
β-catenin = biological target: T1, β-catenin (Homo sapiens, UniProt P35222); test: KD50 measurement using competitive fluorescence polarization (FP) with labelled TCF4; assay type: binding; conditions: fluorescence polarization, β-catenin; for pKd: read-out: β-Cat FP KD
T1 sequence (P35222 1-781): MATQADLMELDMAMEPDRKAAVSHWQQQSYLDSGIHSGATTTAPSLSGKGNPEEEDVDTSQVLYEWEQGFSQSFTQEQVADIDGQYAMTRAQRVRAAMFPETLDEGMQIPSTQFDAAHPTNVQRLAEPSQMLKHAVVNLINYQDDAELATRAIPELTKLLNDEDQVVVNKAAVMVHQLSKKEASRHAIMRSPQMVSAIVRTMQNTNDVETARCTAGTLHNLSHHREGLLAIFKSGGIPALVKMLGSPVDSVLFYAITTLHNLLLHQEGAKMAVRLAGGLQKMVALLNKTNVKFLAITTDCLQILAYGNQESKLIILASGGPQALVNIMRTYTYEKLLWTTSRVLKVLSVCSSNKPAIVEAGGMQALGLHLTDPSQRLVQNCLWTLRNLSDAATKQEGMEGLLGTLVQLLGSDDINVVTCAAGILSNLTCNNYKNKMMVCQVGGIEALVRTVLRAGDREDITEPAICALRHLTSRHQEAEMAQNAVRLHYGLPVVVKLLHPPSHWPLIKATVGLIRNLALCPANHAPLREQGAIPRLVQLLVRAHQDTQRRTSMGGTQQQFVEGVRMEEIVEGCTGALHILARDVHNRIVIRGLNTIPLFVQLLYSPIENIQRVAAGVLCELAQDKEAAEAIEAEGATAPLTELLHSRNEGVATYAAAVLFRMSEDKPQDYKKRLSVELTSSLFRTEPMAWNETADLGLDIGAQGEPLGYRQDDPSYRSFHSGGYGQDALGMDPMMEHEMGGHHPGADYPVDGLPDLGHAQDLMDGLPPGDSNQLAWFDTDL
Outline: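 Labelled TCF4 (5 nM) mixed with 100 nM β-catenin at room temperature; inhibitor added as serial dilutions from 10 nM to 30 uM. Polarization read at excitation 470 nm/emission 520 nm; binding displacement lowers polarization. Three independent runs.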

[1] = biological target: Wnt-responsive promoter (TCF/LEF); test: Wnt-dependent luciferase reporter assay; assay type: cell-based, murine
Procedure: The luciferase reporter assay is commonly used as a tool to study gene expression at the transcriptional level. Peptides from libraries described herein were characterized for ability to suppress transcription in cells with luciferase expression controlled by a Wnt-responsive promoter. Peptides were added to cells transfected with luciferase gene downstream of a Wnt-responsive promoter. Cells were stimulated with Wnt3a protein and incubated with peptides from libraries described herein. Luminescence was recorded to determine the peptides with the highest β-catenin-inhibiting activity. EC50 values were calculated based on the inhibition of luminescence and expressed as concentration (uM) in Table 5.
Peptides were assessed for their ability to inhibit Wnt signaling. Murine 3T3 fibroblasts that express luciferase under a Wnt-responsive promoter (TCF/LEF) (Enzo Life Sciences, Farmingdale, NY) were stimulated with Wnt3a in the presence of increasing concentrations of peptide inhibitor (Hit 1: SEQ ID NO:217, Hit 2: SEQ ID NO:224, Hit 3: SEQ ID NO:228, Hit 4: SEQ ID NO:227, Hit 5: SEQ ID NO:220, Hit 6: SEQ ID NO:168. Hit 7: SEQ ID NO:226) or with vehicle control (FIG. 2A).

β-Cat FP Hill slope (β-catenin)	pKd (β-catenin)	pEC50 [1]	Structure (SMILES)
0.94	> 6.40	< 4.52	CC[C@H](C)[C@@H]1NC(=O)[C@@H](NC(=O)[C@H](CCC(N)=O)NC(=O)[C@@H]2CCCN2C(=O)[C@H](Cc2c[nH]c3ccccc23)NC(=O)[C@H](CCCNC(=N)N)NC(C)=O)CCCCNC(=O)CC[C@@H](C(=O)N[C@@H](Cc2c[nH]cn2)C(=O)N[C@H](C(=O)N[C@@H](CCCNC(=N)N)C(=O)N[C@@H](CCCNC(=N)N)C(=O)N[C@H](C(=O)N[C@@H](Cc2c[nH]c3ccccc23)C(=O)N[C@@H](CCCNC(=N)N)C(N)=O)C(C)C)C(C)C)NC(=O)[C@H](CC(=O)O)NC(=O)[C@H](CC(C)C)NC1=O [compound 428] (HELM PEPTIDE1{[ac].R.W.P.Q.K.I.L.D.E.H.V.R.R.V.W.R.[am]}$PEPTIDE1,PEPTIDE1,6:R3-10:R3$$$V2.0)
1.75	> 6.40	4.65 to 4.82	CC[C@H](C)[C@@H]1NC(=O)[C@@H](NC(=O)[C@H](CCC(N)=O)NC(=O)[C@H](C)N(C)C(=O)[C@H](Cc2c[nH]c3ccccc23)NC(C)=O)CCCCNC(=O)C[C@@H](C(=O)N[C@@H](Cc2c[nH]cn2)C(=O)N[C@H](C(=O)N[C@@H](CCC(N)=O)C(=O)N[C@@H](CCCNC(=N)N)C(=O)N[C@H](C(=O)N[C@@H](Cc2c[nH]c3ccccc23)C(=O)NCC(N)=O)C(C)C)C2CCCCC2)NC(=O)[C@H](CC(=O)O)NC(=O)[C@H](CC(C)C)NC1=O [compound 430] (HELM PEPTIDE1{[ac].W.[meA].Q.K.I.L.D.D.H.[O=C([C@@H](N[*:1])C1CCCCC1)[*:2]].Q.R.V.W.G.[am]}$PEPTIDE1,PEPTIDE1,5:R3-9:R3$$$V2.0)
0.7	> 6.40	< 4.52	CC[C@H](C)[C@@H]1NC(=O)[C@@H](NC(=O)[C@H](CCC(N)=O)NC(=O)[C@H](C)N(C)C(=O)[C@H](Cc2c[nH]c3ccccc23)NC(C)=O)CCCCNC(=O)CC[C@@H](C(=O)N[C@@H](Cc2c[nH]cn2)C(=O)N[C@H](C(=O)N[C@@H](CCC(N)=O)C(=O)N[C@@H](CCCNC(=N)N)C(=O)N[C@H](C(=O)N[C@@H](Cc2c[nH]c3ccccc23)C(=O)NCC(N)=O)C(C)C)C2CCCCC2)NC(=O)[C@H](CC(N)=O)NC(=O)[C@H](CC(C)C)NC1=O [compound 435] (HELM PEPTIDE1{[ac].W.[meA].Q.K.I.L.N.E.H.[O=C([C@@H](N[*:1])C1CCCCC1)[*:2]].Q.R.V.W.G.[am]}$PEPTIDE1,PEPTIDE1,5:R3-9:R3$$$V2.0)
0.7	> 6.40	4.52 to 4.65	CC[C@H](C)[C@@H]1NC(=O)[C@@H](NC(=O)[C@H](CCC(N)=O)NC(C)=O)CCCCNC(=O)CC[C@@H](C(=O)N[C@@H](Cc2c[nH]cn2)C(=O)N[C@H](C(=O)N[C@@H](CCC(N)=O)C(=O)N[C@@H](CCCNC(=N)N)C(=O)N[C@H](C(=O)N[C@@H](Cc2c[nH]c3ccccc23)C(=O)NCC(N)=O)C(C)C)C2CCCCC2)NC(=O)[C@H](CC(=O)O)NC(=O)[C@H](CC(C)C)NC1=O [compound 440] (HELM PEPTIDE1{[ac].Q.K.I.L.D.E.H.[O=C([C@@H](N[*:1])C1CCCCC1)[*:2]].Q.R.V.W.G.[am]}$PEPTIDE1,PEPTIDE1,3:R3-7:R3$$$V2.0)
1.86	> 6.40	< 4.52	CC[C@H](C)[C@@H]1NC(=O)[C@@H](NC(=O)[C@H](CCC(N)=O)NC(=O)[C@H](C)NC(=O)[C@H](Cc2c[nH]c3ccccc23)NC(C)=O)CCCCNC(=O)CC[C@@H](C(=O)N[C@@H](Cc2c[nH]cn2)C(=O)N[C@H](C(=O)N[C@@H](CCC(N)=O)C(=O)N[C@@H](CCCNC(=N)N)C(=O)N[C@H](C(=O)N[C@@H](Cc2c[nH]c3ccccc23)C(=O)NCC(N)=O)C(C)C)C2CCCCC2)NC(=O)[C@H](CC(=O)O)NC(=O)[C@H](CC(C)C)NC1=O [compound 441] (HELM PEPTIDE1{[ac].W.A.Q.K.I.L.D.E.H.[O=C([C@@H](N[*:1])C1CCCCC1)[*:2]].Q.R.V.W.G.[am]}$PEPTIDE1,PEPTIDE1,5:R3-9:R3$$$V2.0)
1.51	> 6.40	> 5.12	CC[C@H](C)[C@@H]1NC(=O)[C@@H](NC(=O)[C@H](CCC(N)=O)NC(=O)[C@@H]2CCCCN2C(=O)[C@H](Cc2c[nH]c3ccccc23)NC(C)=O)CCCCNC(=O)CC[C@@H](C(=O)N[C@@H](Cc2c[nH]cn2)C(=O)N[C@H](C(=O)N[C@@H](CCC(N)=O)C(=O)N[C@@H](CCCNC(=N)N)C(=O)N[C@H](C(=O)N[C@@H](Cc2c[nH]c3ccccc23)C(=O)NCC(N)=O)C(C)C)C2CCCCC2)NC(=O)[C@H](CC(=O)O)NC(=O)[C@H](CC(C)C)NC1=O [compound 442] (HELM PEPTIDE1{[ac].W.[O=C([C@@H]1CCCCN1[*:1])[*:2]].Q.K.I.L.D.E.H.[O=C([C@@H](N[*:1])C1CCCCC1)[*:2]].Q.R.V.W.G.[am]}$PEPTIDE1,PEPTIDE1,5:R3-9:R3$$$V2.0)
0.86	> 6.40	4.82 to 5.12	CC[C@H](C)[C@@H]1NC(=O)[C@@H](NC(=O)[C@H](CCC(N)=O)NC(=O)C(C)(C)NC(=O)[C@H](Cc2c[nH]c3ccccc23)NC(C)=O)CCCCNC(=O)CC[C@@H](C(=O)N[C@@H](Cc2c[nH]cn2)C(=O)N[C@H](C(=O)N[C@@H](CCC(N)=O)C(=O)N[C@@H](CCCNC(=N)N)C(=O)N[C@H](C(=O)N[C@@H](Cc2c[nH]c3ccccc23)C(=O)NCC(N)=O)C(C)C)C2CCCCC2)NC(=O)[C@H](CC(=O)O)NC(=O)[C@H](CC(C)C)NC1=O [compound 443] (HELM PEPTIDE1{[ac].W.[Aib].Q.K.I.L.D.E.H.[O=C([C@@H](N[*:1])C1CCCCC1)[*:2]].Q.R.V.W.G.[am]}$PEPTIDE1,PEPTIDE1,5:R3-9:R3$$$V2.0)
0.7	> 6.40	4.52 to 4.65	CC[C@H](C)[C@@H]1NC(=O)[C@@H](NC(=O)[C@H](CCC(N)=O)NC(=O)[C@H](C)N(C)C(C)=O)CCCCNC(=O)CC[C@@H](C(=O)N[C@@H](Cc2c[nH]cn2)C(=O)N[C@H](C(=O)N[C@@H](CCC(N)=O)C(=O)N[C@@H](CCCNC(=N)N)C(=O)N[C@H](C(=O)N[C@@H](Cc2c[nH]c3ccccc23)C(N)=O)C(C)C)C2CCCCC2)NC(=O)[C@H](CC(=O)O)NC(=O)[C@H](CC(C)C)NC1=O [compound 445] (HELM PEPTIDE1{[ac].[meA].Q.K.I.L.D.E.H.[O=C([C@@H](N[*:1])C1CCCCC1)[*:2]].Q.R.V.W.[am]}$PEPTIDE1,PEPTIDE1,4:R3-8:R3$$$V2.0)
0.7	> 6.40	< 4.52	CC[C@H](C)[C@@H]1NC(=O)[C@@H](NC(=O)[C@H](CCC(N)=O)NC(=O)[C@H](C)N(C)C(C)=O)CCCCNC(=O)CC[C@@H](C(=O)N[C@@H](Cc2c[nH]cn2)C(=O)N[C@H](C(=O)N[C@@H](CCC(N)=O)C(=O)N[C@@H](CCCNC(=N)N)C(=O)N[C@H](C(=O)N[C@@H](Cc2c[nH]c3ccccc23)C(=O)N[C@@H](CCCNC(=N)N)C(N)=O)C(C)C)C2CCCCC2)NC(=O)[C@H](CC(=O)O)NC(=O)[C@H](CC(C)C)NC1=O [compound 448] (HELM PEPTIDE1{[ac].[meA].Q.K.I.L.D.E.H.[O=C([C@@H](N[*:1])C1CCCCC1)[*:2]].Q.R.V.W.R.[am]}$PEPTIDE1,PEPTIDE1,4:R3-8:R3$$$V2.0)
0.89	> 6.40	< 4.52	CC[C@H](C)[C@@H]1NC(=O)[C@@H](NC(=O)[C@H](CCC(N)=O)NC(=O)[C@H](C)N(C)C(=O)[C@H](Cc2c[nH]c3ccccc23)NC(C)=O)CCCCNC(=O)CC[C@@H](C(=O)N[C@@H](Cc2c[nH]cn2)C(=O)N[C@H](C(=O)N[C@@H](CCC(N)=O)C(=O)N[C@@H](CCCNC(=N)N)C(=O)N[C@H](C(=O)N[C@@H](Cc2c[nH]c3ccccc23)C(=O)N[C@@H](CCCNC(=N)N)C(N)=O)C(C)C)C2CCCCC2)NC(=O)[C@H](CC(=O)O)NC(=O)[C@H](CC(C)C)NC1=O [compound 449] (HELM PEPTIDE1{[ac].W.[meA].Q.K.I.L.D.E.H.[O=C([C@@H](N[*:1])C1CCCCC1)[*:2]].Q.R.V.W.R.[am]}$PEPTIDE1,PEPTIDE1,5:R3-9:R3$$$V2.0)
